According to patent US20060235068A1, “OPHTHALMOLOGICAL SURGERY COLORANT AND DELIVERY SYSTEM” (priority 2000, published 2006):

How the values were obtained:
[1] = Contrast characteristics of indocyanine green colorant after exposure; format: physicochemical; conditions: exposed to air, room temperature and lighted atmospheric conditions; at least 8 hours up to one month after exposure, or longer
[2] = upon mixing; as marketed; cited from earlier work
[3] = tested on: ILM, the epiretinal membrane; assay: ILM / epiretinal membrane peeling with indocyanine green staining in human patients; format: in vivo; conditions: human patients having macular holes, epiretinal membranes, or both
From the text: The procedures of Example are followed using human patients having macular holes, epiretinal membrances, or both.

Protocol for retinal ILM: Human cadaveric eyes are examined in the laboratory to determine if the ICG solution stains the retinal ILM. The entire anterior segment of the eye is excised to gain access to the vitreous cavity. […] The dye is left in place on the macula for 5 minutes. […] A bent 22 g needle is used to create the initial ILM tear. Intraocular foreign body forceps are then used to grasp the elevated ILM edge. The ILM is peeled in a continuous, circular manner similar to a capsulorhexis in cataract surgery. In each case, the ILM peel removes 3 to 4 disc diameters of ILM centered approximately on the fovea. Peeled ILM and cadaver eyes are fixed in 10% buffered formalin for histopathologic preparation. Specimens are evaluated by light microscopy.
The peeled ILM and sectioned globes are submitted for histopathologic evaluation and electron microscopy. Periodic acid-Schiff (PAS) stain is used to identify the ILM.

In the case of CC1(C)C(/C=C/C=C/C=C/C=C2\N(CCCCS(=O)(=O)O)c3ccc4ccccc4c3C2(C)C)=[N+](CCCCS(=O)(=O)[O-])c2ccc3ccccc3c21 [indocyanine green], the “contrast characteristics after exposure” value [1] is reported as “satisfactory contrast characteristics”, the “staining of the underlying retina” value (retinal ILM; after the ICG is removed, needle penetrated through the ILM) is reported as “unstained underlying retina” and the “staining of the underlying ILM when posterior hyaloid remains attached” value (retinal ILM; compared with globes in which the posterior cortical vitreous was removed prior to ICG injection) is reported as “less staining of the underlying ILM”. For the same molecule, the “effect of staining on ILM peeling” value (retinal ILM; contrast between stained ILM and unstained retina) was “facilitates the continuation of ILM peeling”, the fluorescence stability [2] was “about 10 hours” and the “peeling of the ILM, the epiretinal membrane or both” value [3] was “Successful peeling”.
